Laboratory results as given in article PMC12040169 (PLOS Biology, 2025).

Assay: in vitro
Details: human, hela cells, % viability

Row | Compound | viability at 28.5 h, 10 µM [%]
1 | FC(F)Oc1ccc(NC(=S)NCCN2CCOCC2)cc1 [CBK028000] | 87.7
2 | CC(C)OC(=O)Cn1c(C2CCNCC2)cc2cccnc21 [CBK285075] | 99.9
3 | COc1ccc(Nc2ncc(C(=O)NCCCN3CCCC3)c3ccccc23)cc1 [CBK291114] | 106
4 | O=C1OC(c2ccccc2)=C/C1=C1/C(=O)Nc2ccccc21 [CBK115375] | 102
5 | CC(C)(C)C1=CC2=NC3(CCCC3)[C@@H]3C[C@@H](O)[C@@H](O)[C@@H]3N2O1 [CBK303245] | 95.1
6 | CN1CCN(c2snnc2CO)CC1 [CBK025626] | 99.5
7 | COc1ccccc1CC(C)NC(=O)CCn1ccc2ccncc21 (stereo not drawn) [CBK285175] | 93.8
8 | COc1ccc(-c2nc(NC(=O)C3CC(=O)N(C)C3c3cccnc3)cnc2-c2cccc(C)c2)cc1 (stereo not drawn) [CBK036692] | 101
9 | O=C(c1c(-c2ccccc2)nnc2ccccc12)N1CCN(CCO)CC1 [CBK066882] | 87.3
10 | Fc1ccc(C(c2nnnn2C2CCCCC2)N2CCCCC2)cc1 (stereo not drawn) [CBK141670] | 94.9
11 | Cc1ccnc(NS(=O)(=O)c2ccc(NC(=O)CSc3ccc(Cl)cc3)cc2)n1 [CBK265854] | 98.9
12 | Cc1nn2c3ccccc3nc2n1CCN1CCCCC1 [CBK278256C] | 95.3
13 | Cc1nn(C)c(C)c1CN1CCOC(c2nc(C(C)(C)C)cs2)C1 (stereo not drawn) [CBK304170] | 85.6
14 | C#CCOc1cn([C@H]2C[C@@H](O)[C@@H](CO)O2)c(=O)[nH]c1=O [CBK201278] | 91.7
15 | CC1CC(=O)N(c2cccc(C(=O)Nc3cccc(-c4cccc(F)c4)c3)c2)C1=O (stereo not drawn) [CBK285734] | 103
16 | Cc1ccc(OCc2nnc(SCC(=O)c3cccc([N+](=O)[O-])c3)n2C)cc1 [CBK268580] | 86.9
17 | CCN(Cc1ccncc1)C(=O)NC(C)c1ccccc1 (stereo not drawn) [CBK155156] | 101
18 | O=C(Cc1cccs1)N1CCC(c2nnc3n2CCCCC3)CC1 [CBK284606] | 83.1
19 | CCN=C(S)NS(=O)(=O)c1ccc(C)cc1 [CBK288452] | 86.2
20 | Cc1cc(C)c(C)c(S(=O)(=O)N2CCN(c3ncnc4sc(C)c(C)c34)CC2)c1C [CBK265297] | 90.2
21 | CN(CC1CCN(C(=O)OC(C)(C)C)CC1)c1ccnc(-c2ccncc2)n1 [CBK166064] | 101
22 | COCC(C)NS(=O)(=O)c1cc(C)ccc1OC (stereo not drawn) [CBK270037] | 85.6
23 | CCc1ccc(C(O)CNC2CCN(c3nccs3)CC2)cc1 (stereo not drawn) [CBK304215] | 94.3

Row | Compound | viability at 28.5 h, 10 µM [%]
24 | COc1ccc2ccccc2c1CN1CCN(C/C=C/c2ccccc2)CC1 [CBK261899] | 108
25 | CCOc1ncccc1C(=O)NCc1ccc(COCC(F)(F)F)cc1 [CBK304526] | 97.8
26 | Cc1cc(C)n2nc(SCC(=O)O)nc2n1 [CBK268536] | 111
27 | O=C(Nc1ccccc1O)c1cc(S(=O)(=O)N2CCCCCC2)ccc1Cl [CBK264554] | 89.1
28 | CO[C@@]12CC[C@@H](OCC3CC3)C[C@@H]1N(Cc1c(C)cnn1C)CC2 [CBK307072] | 97
29 | CCc1c(C)nc2ccc(Br)cc2c1SCCC(=O)O [CBK126914] | 113
30 | Cn1c(=O)c2c(nc(N3CCN(c4cccc(Cl)c4)CC3)n2CC(=O)O)n(C)c1=O [CBK286803] | 87.7
31 | COc1ccc(-c2csc(NC(=O)C(C)C)c2C(=O)O)cc1 [CBK286622] | 83.1
32 | Cc1oc(NC(=O)CN(C)Cc2cccc(F)c2)c(C#N)c1C [CBK305609] | 90.9
33 | CCN(Cc1ccccn1)C(=O)NC(C)c1cccc(NC(C)=O)c1 (stereo not drawn) [CBK305380] | 92.9
34 | O=C(NCc1ccco1)C1CCN(c2nccc(C(F)(F)F)n2)CC1 [CBK028778] | 105
35 | CC(C)(C)c1ccccc1[S+]([O-])c1cc2c(N3CCNCC3)nccc2s1 (stereo not drawn) [CBK200018C] | 103
36 | Cc1nc(-c2cc3c(s2)CCN(CC(O)Cn2cccn2)C3)cs1 (stereo not drawn) [CBK304458] | 102
37 | CN1CCN(CC(CC(=O)Nc2c(F)cccc2F)C(=O)O)CC1 (stereo not drawn) [CBK286867] | 92
38 | CCN(Cc1cccc(C(=O)O)c1)Cc1noc(C2CCC2)n1 [CBK307708] | 102
39 | CC(=O)Nc1ccc(CNc2ccc(C#N)cn2)cc1 [CBK297790] | 97.7
40 | Cc1cc(CN2CCCN(S(=O)(=O)c3ccc(C(F)(F)F)cc3Cl)CC2)cc(C)c1O [CBK063102] | 91.2
41 | COCCN1CCN(C(=O)NCCc2c(C)[nH]c3ccc(Cl)cc23)CC1 [CBK307637] | 85
42 | COc1ccccc1-c1cnc(Nc2ccc(N3CCOCC3)cc2)c2nccn12 [CBK091230] | 99.9
43 | CC(=O)NC1CCN(CC2(c3cccc(F)c3)CCCC2)CC1 [CBK282590] | 95.7
44 | O=C(O)c1cccnc1SC1CC(=O)N(c2cccc(Cl)c2Cl)C1=O (stereo not drawn) [CBK269306] | 110
45 | Cc1nn(CC(=O)N2CCCCC2C)c(=O)c2cc3sccc3n12 (stereo not drawn) [CBK284141] | 70
46 | Fc1ccc(-c2cn3ccnc3c(Nc3cccc(OC(F)(F)C(F)F)c3)n2)cc1Cl [CBK037265] | 98.1

Row | Compound | viability at 28.5 h, 10 µM [%]
47 | O=C(COc1cccc2ccccc12)Nc1cccnc1 [CBK263015] | 115
48 | CC(C)c1ccc(S(=O)(=O)n2ccn(-c3cccc(C(F)(F)F)c3)c2=O)cc1 [CBK106587] | 93.8
49 | O=C(O)c1c[nH]c2ccc(S(=O)(=O)N3CCOCC3)cc12 [CBK011237] | 97.3
50 | Cc1ccc2c(c1)cc(C)c1nn(CC(=O)N3CCCCC3)c(=O)n12 [CBK283870] | 81.6
51 | N#Cc1cnc2c(-c3ccccc3)c(Cc3ccccc3)nn2c1N [CBK270191] | 91.8
52 | C=C(C)Cn1c(Cc2ccccc2)nnc1SC(C)C [CBK200083] | 92
53 | COc1ccc(C(=O)CC(SCC(NC(C)=O)C(=O)O)c2ccc(Cl)cc2)cc1OC (stereo not drawn) [CBK296109] | 88.4
54 | CNC(=O)CN1C(=O)CC2(C1=O)C(=O)N(CCOC)c1ccc(OC)cc12 (stereo not drawn) [CBK075144] | 90.8
55 | COCC1CCN(c2ncc(C#N)cc2Cl)CC1 [CBK306410] | 61.1
56 | CCCCNc1nccnc1-c1ccccc1 [CBK088477] | 90.1
57 | O=C(O)CN1C(=O)/C(=C2/C(=O)N(Cc3ccccc3Cl)c3ccccc32)SC1=S [CBK265570] | 95.6
58 | O=C(N[C@H]1CCN(Cc2ccccc2)C1)c1cnc(-c2ccccc2)c(-c2ccncc2)c1 [CBK036639] | 84.7
59 | O=C1c2ccccc2S(=O)(=O)N1c1ccc(F)cc1 [CBK113194] | 112
60 | O=C(Nc1nn(Cc2ccc(Oc3ccccc3)cc2)c2ccccc12)c1ccno1 [CBK048224] | 97.8
61 | C=CCOc1ccc(OCCN2CC(C)OC(C)C2)cc1 (stereo not drawn) [CBK269646C] | 112
62 | Cc1cc(NC(=O)C(C)N(C)CCOc2ccccc2Cl)no1 (stereo not drawn) [CBK304466] | 107
63 | Cc1cc(I)ccc1OCCCCN1CCN(C)CC1 [CBK269652C] | 91.3
64 | CNS(=O)(=O)c1cccc(C(=O)N(C)Cc2ccsc2)c1 [CBK303993] | 113
65 | CCOC(=O)c1c[nH]c2nc(COc3ccccc3)nn2c1=O [CBK268088] | 107
66 | CC(C(=O)NCCn1nc(-c2ccco2)ccc1=O)c1ccccc1 (stereo not drawn) [CBK283861] | 93.6
67 | COc1ccc(NS(=O)(=O)c2ccc(C)cc2)cn1 [CBK010484] | 85.8
68 | CCOC(=O)c1ccc2ncc3c(=O)nc(N)sc3c2c1 [CBK291218] | 83.7
69 | c1ccc(Nc2nc(-c3ccco3)cn3ccnc23)cc1 [CBK037947] | 86.9

Row | Compound | viability at 28.5 h, 10 µM [%]
70 | COc1cccc(Cn2c(=O)n(C)c3ncccc32)c1 [CBK282391] | 81.1
71 | CN(C)CCN(C)C(=O)c1ccc(-c2cccc(C(=O)NCCO)c2)nc1N1CCOCC1 [CBK076592] | 92.5
72 | O=C(c1ccco1)N1C2CCC1CC(O)(c1cccnc1F)C2 (stereo not drawn) [CBK284417] | 98.6
73 | O=C(O)CCC(=O)N1N=C(c2c(-c3ccccc3)c3cc(Cl)ccc3[nH]c2=O)CC1c1ccccn1 (stereo not drawn) [CBK296106] | 97.3
74 | Cc1ccc(C2=CCN(CC(=O)NC3CCCC3)CC2)o1 [CBK283605] | 92
75 | N[C@H](CCc1nc2ccccc2[nH]1)C(=O)O [CBK172614] | 98.2
76 | CCn1ncc(CN(C)C(=O)CCN2CCCCCC2=O)c1C [CBK306718] | 97.2
77 | O=C(COc1nc2cc3c(nc2o1)CCC3)c1ccccc1 [CBK269407] | 75.5
78 | O=C(O)c1ccc(NC2OC(CO)C(O)C2O)cc1 (stereo not drawn) [CBK218836] | 95.9
79 | O=C(c1cc2ncc(Br)cn2n1)N1CCOCC1 [CBK058513] | 97.9
80 | C=C(C)Cn1c(SCC(C)C)nnc1-c1ccccc1C(=O)O [CBK200093] | 90.1
81 | COCc1cc(C[C@H]2CNCC[C@H]2CC(=O)N2CCCCC2)no1 [CBK288899] | 109
82 | Cn1cc(C(=O)Nc2cccc(S(=O)(=O)N3CCCCCC3)c2)cn1 [CBK305715] | 87.2
83 | COc1ccc(-c2cnc3[nH]c(=O)n([C@H](C)c4ccccc4)c3n2)c(OC)c1OC [CBK064236] | 94.7
84 | COc1ccc([C@@]23CC[C@@H](C(=O)Nc4ccc(C(F)(F)F)cn4)C[C@@H]2N(C)CC3)cc1OC [CBK046310T] | 87.3
85 | S=c1[nH]nc2ccc(N3CCOCC3)nn12 [CBK008327] | 101
86 | CC(C)Nc1nc2ccccc2nc1SCCc1ccncc1 [CBK103670] | 87.8
87 | O=C(NCCCn1ccnc1)c1cc(-c2ccc(Br)cc2)nc2ccccc12 [CBK262645] | 84.8
88 | Nc1ncc(-c2cccc(OC(F)(F)F)c2)nc1-c1ccc(C(=O)N2CCOCC2)cc1 [CBK064091] | 96.8
89 | CC(Sc1nc(N)cc(N)n1)C(=O)c1ccc(F)c(F)c1 (stereo not drawn) [CBK296928] | 94.7
90 | COc1ccc(N2CCN(c3cncc(-c4ccc(C(N)=O)cc4)n3)CC2)cc1OC [CBK065820] | 93.8
